Data on three compounds can be found in paper PMC5054527, “Mechanism of high affinity inhibition of the human urate transporter URAT1” (Scientific Reports, 2016).

In assay [1] the target is T1, r-Y365F/M481I rURAT1 double point mutant (Rattus norvegicus, UniProt Q3ZAV1, M481I/Y365F).
T1 construct: hURAT1 and rURAT1 are 553 amino acid proteins with 12 transmembrane segments; expressed in transfected cells; host or cells: HEK-293T
Put plainly: URAT1 uric acid transport activity assay. It counts as cell-based. An outline of the steps:
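Rat URAT1 point or double mutants in pCMV6/neo were transiently transfected into cells and assayed the next day. Compounds were preincubated for 5 minutes, then 100 μM 14C-uric acid uptake was measured over 10 minutes in triplicate. IC50 came from four-parameter variable-slope nonlinear regression.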

The test system of a further assay is rURAT1. The arrangement: method as in PMID 21074513. The conditions noted are these: cited from earlier work.
The target of assay [2] is T2, h-V26T hURAT1 point mutant (Homo sapiens, UniProt Q96S37, V26T).
T2 construct: expressed in transfected cells; host or cells: HEK-293T
T2 sequence (Q96S37 whole entry V26T): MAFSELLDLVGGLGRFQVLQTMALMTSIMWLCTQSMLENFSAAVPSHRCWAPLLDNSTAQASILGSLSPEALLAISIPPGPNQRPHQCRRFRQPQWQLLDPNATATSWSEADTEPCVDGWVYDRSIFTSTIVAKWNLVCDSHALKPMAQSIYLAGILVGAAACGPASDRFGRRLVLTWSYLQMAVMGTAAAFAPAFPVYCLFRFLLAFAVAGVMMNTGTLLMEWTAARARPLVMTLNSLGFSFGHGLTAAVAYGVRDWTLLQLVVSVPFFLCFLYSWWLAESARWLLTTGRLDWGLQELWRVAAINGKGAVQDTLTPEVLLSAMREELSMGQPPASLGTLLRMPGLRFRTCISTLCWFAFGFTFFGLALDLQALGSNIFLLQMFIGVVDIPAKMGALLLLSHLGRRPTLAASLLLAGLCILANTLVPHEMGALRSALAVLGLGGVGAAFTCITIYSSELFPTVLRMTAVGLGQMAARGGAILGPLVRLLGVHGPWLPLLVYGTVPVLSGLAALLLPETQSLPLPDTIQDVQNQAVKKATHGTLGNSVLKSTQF
The experiment in a line: URAT1 uric acid transport activity assay. The assay is classed as cell-based. Particulars: HEPES pH 7.3, 100 μM 14C-uric acid.

Assay [3] has as its target T3, h-M29L hURAT1 point mutant (Homo sapiens, UniProt Q96S37, M29L).
T3 construct: expressed in transfected cells; host or cells: HEK-293T
The experiment in a line: URAT1 uric acid transport activity assay. Particulars: HEPES pH 7.3, 100 μM 14C-uric acid. The assay is classed as cell-based.

Assay [4] addresses T4, h-F365Y hURAT1 point mutant (Homo sapiens, UniProt Q96S37, F365Y).
T4 sequence (Q96S37 1-553 F365Y): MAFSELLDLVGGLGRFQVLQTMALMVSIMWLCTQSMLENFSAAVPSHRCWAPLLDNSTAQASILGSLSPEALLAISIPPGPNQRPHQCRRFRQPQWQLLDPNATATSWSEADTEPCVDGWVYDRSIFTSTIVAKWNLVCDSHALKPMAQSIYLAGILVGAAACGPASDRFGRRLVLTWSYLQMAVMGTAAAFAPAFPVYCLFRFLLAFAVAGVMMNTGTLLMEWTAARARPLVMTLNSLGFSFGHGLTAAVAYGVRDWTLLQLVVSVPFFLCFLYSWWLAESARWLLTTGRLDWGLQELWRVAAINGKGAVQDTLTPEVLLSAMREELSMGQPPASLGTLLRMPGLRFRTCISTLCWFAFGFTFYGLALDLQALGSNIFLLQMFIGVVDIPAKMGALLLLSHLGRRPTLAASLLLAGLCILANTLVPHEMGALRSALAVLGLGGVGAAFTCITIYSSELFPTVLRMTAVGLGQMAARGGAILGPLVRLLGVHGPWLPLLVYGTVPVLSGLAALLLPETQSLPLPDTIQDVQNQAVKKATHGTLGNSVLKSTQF
The experiment in a line: URAT1 uric acid transport activity assay. The assay is classed as cell-based. The conditions noted are these: for fold reduced affinity of h-F365Y compared to hURAT1: from IC50 values; for IC50: h-F365Y, 100 μM 14C-uric acid.

The next assay has as its target T5, human URAT1 (hURAT1 WT) (Homo sapiens, UniProt Q96S37).
T5 sequence (Q96S37 1-553): T4 sequence (Q96S37 1-553 F365Y) with Y365F
The experiment in a line: URAT1 uric acid transport activity assay. It counts as cell-based. Particulars: for IC50: hURAT1 WT, 100 μM 14C-uric acid; for fold higher affinity (potency) of hURAT1 compared to rURAT1: ratio of IC50 values, rURAT1 vs hURAT1.

Assay [5] has as its target T6, h-S35N hURAT1 point mutant (Homo sapiens, UniProt Q96S37, S35N).
T6 sequence (Q96S37 1-553 S35N): T4 sequence (Q96S37 1-553 F365Y) with S35N, Y365F
Put plainly: URAT1 uric acid transport activity assay. The assay is classed as cell-based. The conditions noted are these: for fold reduced sensitivity/affinity of h-S35N compared to hURAT1: from IC50 values; for IC50: h-S35N, 100 μM 14C-uric acid.

Residue numbers refer to the chain shown, from its start. Where “and” joins values, the source holds several entries; their conditions need not be identical. Equal entries are not always repeated. Where two headings read alike, the source gives them in different places.

For orientation: IC50 means the concentration needed to halve the response being measured. One may read the Km as the concentration of substrate that gives half-maximal velocity.

T3 sequence (Q96S37 whole entry M29L): as the sequence (Q96S37 whole entry V26T) above, with T26V, M29L counted along it
T1 sequence (Q3ZAV1 whole entry Y365F/M481I): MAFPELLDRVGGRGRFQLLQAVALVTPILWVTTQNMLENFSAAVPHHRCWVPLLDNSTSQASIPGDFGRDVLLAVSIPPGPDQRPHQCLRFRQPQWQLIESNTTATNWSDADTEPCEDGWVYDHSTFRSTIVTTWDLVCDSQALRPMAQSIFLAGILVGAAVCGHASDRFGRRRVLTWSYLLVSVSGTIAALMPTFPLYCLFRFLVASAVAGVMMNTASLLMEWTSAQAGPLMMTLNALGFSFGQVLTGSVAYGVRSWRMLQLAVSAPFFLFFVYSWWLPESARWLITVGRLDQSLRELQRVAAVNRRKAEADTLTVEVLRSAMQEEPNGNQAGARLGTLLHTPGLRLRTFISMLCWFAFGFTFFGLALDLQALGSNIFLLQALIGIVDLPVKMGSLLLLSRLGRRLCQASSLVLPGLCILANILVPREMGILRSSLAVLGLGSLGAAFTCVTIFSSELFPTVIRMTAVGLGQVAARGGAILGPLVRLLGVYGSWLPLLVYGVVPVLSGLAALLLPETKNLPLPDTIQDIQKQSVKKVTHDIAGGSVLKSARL

As to `CCc1oc2ccccc2c1C(=O)c1cc(Br)c(O)c(Br)c1` [benzbromarone], the IC50 in assay [1] is 3.5 ± 0.39 µM; with rURAT1, 11.9 µM.

On to `O=C1C(CC[S+]([O-])c2ccccc2)C(=O)N(c2ccccc2)N1c1ccccc1` (stereo not drawn) [sulfinpyrazone], for which the IC50 in assay [2] was 21 ± 4.7 µM; in assay [1] (r-Y365F/M481I, HEPES pH 7.3, 100 μM 14C-uric acid, read-out: IC50 (uric acid transport)), 138 ± 25 µM; in assay [3], 8.5 µM and 9 µM; in assay [4] (HEPES pH 7.3), 163 ± 13 µM; on human URAT1 (hURAT1 WT) (HEPES pH 7.3), 32 µM; in assay [5] (HEPES pH 7.3), 233 ± 54 µM. Further, the “fold reduced affinity of h-F365Y compared to hURAT1” value in assay [4] came out at 5 fold. In addition, the “fold higher affinity (potency) of hURAT1 compared to rURAT1” value at human URAT1 (hURAT1 WT) was found to be 21 fold. Also, the “fold reduced sensitivity/affinity of h-S35N compared to hURAT1” value in assay [5] was found to be 7 fold.

As to `O=c1[nH]c(=O)c2[nH]c(=O)[nH]c2[nH]1` [uric acid], in assay [4], the “fold reduced affinity of h-F365Y compared to hURAT1” value was found to be 2.5 fold. In addition, the IC50 stood at 609 µM in assay [4] (MES pH 5.5), 246 µM against human URAT1 (hURAT1 WT) (MES pH 5.5) and 507 µM in assay [5] (MES pH 5.5). Moreover, the “fold higher affinity (potency) of hURAT1 compared to rURAT1” value at human URAT1 (hURAT1 WT) is reported as “greater than 10 fold”. The “fold reduced sensitivity/affinity of h-S35N compared to hURAT1” value in assay [5] is given as 2.1 fold. In addition, in the assay with rURAT1 (read-out: Km for the substrate urate), the Michaelis constant (Km) was 1770 µM.
